Measurements from patent publication US20260041679A1, “METHOD OF TREATING HYPERTENSION WITH THE ALDOSTERONE SYNTHASE INHIBITOR BAXDROSTAT” (CINCOR PHARMA, INC., priority 2022, published 2026).

Test system: patients with uHTN
Experiment: Study 124 Part 1: seated SBP in patients with uncontrolled hypertension (Example 9)
Type: in vivo, human
Design: key to Model-Based Least-Squares Mean Change from Baseline (SBP) / LSMEANS change from baseline (SBP) / Model-Based Least-Square Mean Change from Baseline (SBP): LS mean change from baseline in seated SBP, mmHg
Procedure: Study 124 is a double-blind, placebo-controlled, dose range finding, multicenter study conducted in patients with uHTN receiving background antihypertensive agent(s) that are either an ACEI or an ARB, an ACEI/ARB plus a thiazide diuretic, or an ACEI/ARB plus a calcium channel blocker. The study consists of two parts: Part 1 consists of an 8-week treatment period in which the patients are to be assigned to one of 4 dose groups in equal ratio testing 0.5 mg, 1 mg, and 2 mg baxdrostat effects compared to a placebo. Patients are to administer double-blind baxdrostat tablets once per day while they continue taking the background antihypertensive medications. After 8 weeks of double-blind treatment, patients were to enter part 2 of the study unless the patient was assigned to the 2 mg group and the SBP remains ≥130 mmHg. In part 2 of the study, all patients are to cease dosing with background antihypertensive medication and take only baxdrostat 2 mg dose as a monotherapy for 4 weeks.
Key inclusion criteria include that patients are on a stable regimen of anti-hypertensive agents for at least 8 weeks; and have a seated BP≥140 mmHg. Key exclusion criteria include a seated SBP≥180 mmHg and estimated glomerular filtration rate (eGFR)<30 mL/min/1.73 m^2.
In this table, CI=confidence interval, DBP=diastolic blood pressure, LS=least squares, SBP=systolic blood pressure, SE=standard error. The LS means, CIs, and p-values are from an MMRM model with change from baseline as the dependent variable with randomized treatment, visit, and treatment-by-visit interaction as fixed categorical effects; along with covariates of the baseline value, race (African American versus non-African American), and the type of background antihypertensive regimen. The restricted maximum likelihood estimation (REML) approach will be used with an unstructured covariance matrix and the Kenward-Roger approximation for degrees of freedom.

[1] = 0.5 mg (N = 11), mITT Population for Compliance for Black Patients
[2] = 0.5 mg (N = 11), mITT, Female Non-Hispanic Female Patients
[3] = 0.5 mg (N = 12), mITT, Non-Hispanic Male Patients
[4] = 0.5 mg (N = 15), mITT, Hispanic Male Patients
[5] = 1 mg (N = 11), mITT, Female Non-Hispanic Female Patients
[6] = 1 mg (N = 13), mITT Population for Compliance for Black Patients
[7] = 1 mg (N = 14), mITT, Female Hispanic/Latino Patients
[8] = 1 mg (N = 14), mITT, Hispanic Male Patients
[9] = 1 mg (N = 22), mITT, Non-Hispanic Male Patients

CCC(=O)N[C@@H]1CCCc2c(-c3ccc4c(c3)CCC(=O)N4C)cncc21 [baxdrostat, (R)—N-(4-(1-methyl-2-oxo-1,2,3,4-tetrahydroquinolin-6-yl)-5,6,7,8-tetrahydroisoquinolin-8-yl) propionamide]
SBP Change from Baseline to Week 8, Mean (0.5 mg): −17.0 mmHg
SBP Change from Baseline to Week 8, Median (0.5 mg): −17.0 mmHg
SBP at Week 8, Median (0.5 mg): 127.0 mmHg
Model-Based Least-Square Mean Change from Baseline (SBP) (0.5 mg (N = 11), Week 2, mITT Population for Compliance for Black Patients): −9.0
Model-Based Least-Squares Mean Change from Baseline (SBP) (0.5 mg (N = 11), Week 2, mITT, Female Non-Hispanic Female Patients): −12.5
Model-Based Least-Square Mean Change from Baseline (SBP) (0.5 mg (N = 11), Week 4, mITT Population for Compliance for Black Patients): −11.6
Model-Based Least-Squares Mean Change from Baseline (SBP) (0.5 mg (N = 11), Week 4, mITT, Female Non-Hispanic Female Patients): −12.2
Model-Based Least-Square Mean Change from Baseline (SBP) (0.5 mg (N = 11), Week 6, mITT Population for Compliance for Black Patients): −13.0
Model-Based Least-Squares Mean Change from Baseline (SBP) (0.5 mg (N = 11), Week 6, mITT, Female Non-Hispanic Female Patients): −11.8
Model-Based Least-Square Mean Change from Baseline (SBP) (0.5 mg (N = 11), Week 8, mITT Population for Compliance for Black Patients): −17.2
Model-Based Least-Squares Mean Change from Baseline (SBP) (0.5 mg (N = 11), Week 8, mITT, Female Non-Hispanic Female Patients): −16.7
Comp w/ Placebo at Week 6, Diff (95% CI) [1]: −2.6 (−14.94, 9.64)
Comp w/ Placebo at Week 8, Diff (95% CI) [1]: −3.0 (−13.58, 7.49)
Comp w/ Placebo at Week 6, Diff (95% CI) [2]: −1.5 (−13.92, 10.84)
Comp w/ Placebo at Week 8, Diff (95% CI) [2]: −3.7 (−13.14, 5.67)
Model-Based Least-Squares Mean Change from Baseline (SBP) (0.5 mg (N = 12), Week 2, mITT, Non-Hispanic Male Patients): −19.9
Model-Based Least-Squares Mean Change from Baseline (SBP) (0.5 mg (N = 12), Week 4, mITT, Non-Hispanic Male Patients): −20.5
Model-Based Least-Squares Mean Change from Baseline (SBP) (0.5 mg (N = 12), Week 6, mITT, Non-Hispanic Male Patients): −16.3
Model-Based Least-Squares Mean Change from Baseline (SBP) (0.5 mg (N = 12), Week 8, mITT, Non-Hispanic Male Patients): −17.2
Comp w/ Placebo at Week 6, Diff (95% CI) [3]: −6.4 (−17.23, 4.48)
Comp w/ Placebo at Week 8, Diff (95% CI) [3]: −2.2 (−12.46, 8.04)
Model-Based Least-Squares Mean Change from Baseline (SBP) (0.5 mg (N = 15), Week 2, mITT, Hispanic Male Patients): −8.3
Model-Based Least-Squares Mean Change from Baseline (SBP) (0.5 mg (N = 15), Week 4, mITT, Hispanic Male Patients): −12.6
Model-Based Least-Squares Mean Change from Baseline (SBP) (0.5 mg (N = 15), Week 6, mITT, Hispanic Male Patients): −16.0
Model-Based Least-Squares Mean Change from Baseline (SBP) (0.5 mg (N = 15), Week 8, mITT, Hispanic Male Patients): −18.6
Comp w/ Placebo at Week 6, Diff (95% CI) [4]: −4.7 (−12.73, 3.30)
Comp w/ Placebo at Week 8, Diff (95% CI) [4]: 0.1 (−6.20, 6.41)
SBP at Week 8, Mean (0.5 mg QD, mITT): 129.1 mmHg
SBP LS mean change from baseline (SE), MMRM (0.5 mg, Week 8): −17 (1.63) mm Hg
SBP LS mean difference (SE) vs placebo (0.5 mg, Week 8): −0.5 (2.21) mmHg
LS Mean Change from Baseline (SE) in SBP (0.5 mg, Wk 2): −10.3 (1.61) mm Hg
LS Mean Change from Baseline (SE) in SBP (0.5 mg, Wk 4): −14.2 (1.61) mm Hg
LS Mean Change from Baseline (SE) in SBP (0.5 mg, Wk 6): −13.5 (1.88) mm Hg
SBP Change from Baseline to Week 8, Mean (1 mg): −16.6 mmHg
SBP Change from Baseline to Week 8, Median (1 mg): −16.0 mmHg
SBP at Week 8, Median (1 mg): 128.0 mmHg
Model-Based Least-Squares Mean Change from Baseline (SBP) (1 mg (N = 11), Week 2, mITT, Female Non-Hispanic Female Patients): −11.8
Model-Based Least-Squares Mean Change from Baseline (SBP) (1 mg (N = 11), Week 4, mITT, Female Non-Hispanic Female Patients): −13.5
Model-Based Least-Squares Mean Change from Baseline (SBP) (1 mg (N = 11), Week 6, mITT, Female Non-Hispanic Female Patients): −20.3
Model-Based Least-Squares Mean Change from Baseline (SBP) (1 mg (N = 11), Week 8, mITT, Female Non-Hispanic Female Patients): −23.8
Comp w/ Placebo at Week 6, Diff (95% CI) [5]: −10.0 (−22.06, 2.15)
Comp w/ Placebo at Week 8, Diff (95% CI) [5]: −10.8 (−20.05, −1.63)
Model-Based Least-Square Mean Change from Baseline (SBP) (1 mg (N = 13), Week 2, mITT Population for Compliance for Black Patients): −8.9
Model-Based Least-Square Mean Change from Baseline (SBP) (1 mg (N = 13), Week 4, mITT Population for Compliance for Black Patients): −11.8
Model-Based Least-Square Mean Change from Baseline (SBP) (1 mg (N = 13), Week 6, mITT Population for Compliance for Black Patients): −13.5
Model-Based Least-Square Mean Change from Baseline (SBP) (1 mg (N = 13), Week 8, mITT Population for Compliance for Black Patients): −17.4
Comp w/ Placebo at Week 6, Diff (95% CI) [6]: −3.1 (−14.59, 8.31)
Comp w/ Placebo at Week 8, Diff (95% CI) [6]: −3.2 (−12.88, 6.52)
Model-Based Least-Squares Mean Change from Baseline (SBP) (1 mg (N = 14), Week 2, mITT, Female Hispanic/Latino Patients): −7.8
Model-Based Least-Squares Mean Change from Baseline (SBP) (1 mg (N = 14), Week 2, mITT, Hispanic Male Patients): −7.0
Model-Based Least-Squares Mean Change from Baseline (SBP) (1 mg (N = 14), Week 4, mITT, Female Hispanic/Latino Patients): −10.3
Model-Based Least-Squares Mean Change from Baseline (SBP) (1 mg (N = 14), Week 4, mITT, Hispanic Male Patients): −6.4
Model-Based Least-Squares Mean Change from Baseline (SBP) (1 mg (N = 14), Week 6, mITT, Female Hispanic/Latino Patients): −12.6
Model-Based Least-Squares Mean Change from Baseline (SBP) (1 mg (N = 14), Week 6, mITT, Hispanic Male Patients): −9.2
Model-Based Least-Squares Mean Change from Baseline (SBP) (1 mg (N = 14), Week 8, mITT, Female Hispanic/Latino Patients): −12.7
Model-Based Least-Squares Mean Change from Baseline (SBP) (1 mg (N = 14), Week 8, mITT, Hispanic Male Patients): −15.8
Comp w/ Placebo at Week 6, Diff (95% CI) [7]: −6.2 (−19.55, 7.07)
Comp w/ Placebo at Week 8, Diff (95% CI) [7]: 6.4 (−5.38, 18.10)
Comp w/ Placebo at Week 6, Diff (95% CI) [8]: 2.1 (−6.16, 10.29)
Comp w/ Placebo at Week 8, Diff (95% CI) [8]: 2.9 (−3.41, 9.25)
Model-Based Least-Squares Mean Change from Baseline (SBP) (1 mg (N = 22), Week 2, mITT, Non-Hispanic Male Patients): −6.8
Model-Based Least-Squares Mean Change from Baseline (SBP) (1 mg (N = 22), Week 4, mITT, Non-Hispanic Male Patients): −10.3
Model-Based Least-Squares Mean Change from Baseline (SBP) (1 mg (N = 22), Week 6, mITT, Non-Hispanic Male Patients): −14.2
Model-Based Least-Squares Mean Change from Baseline (SBP) (1 mg (N = 22), Week 8, mITT, Non-Hispanic Male Patients): −14.7
Comp w/ Placebo at Week 6, Diff (95% CI) [9]: −4.3 (−13.56, 5.00)
Comp w/ Placebo at Week 8, Diff (95% CI) [9]: 0.2 (−8.82, 9.26)
SBP at Week 8, Mean (1 mg QD, mITT): 130.8 mmHg
SBP LS mean change from baseline (SE), MMRM (1 mg, Week 8): −16 (1.62) mm Hg
SBP LS mean difference (SE) vs placebo (1 mg, Week 8): 0.6 (2.20) mmHg
LS Mean Change from Baseline (SE) in SBP (1 mg, Wk 2): −7.7 (1.6) mm Hg
LS Mean Change from Baseline (SE) in SBP (1 mg, Wk 4): −9.7 (1.59) mm Hg
